Earlier results as cited in patent EP0594592B1, “A GROWTH FACTOR IN […] ARTIFICIAL TRANSPLANTS” (Strid, Lars, priority 1990, dated 1997).

What was measured:
[1] = on a molar basis
blood platelets = conditions: result in words
thromboxane = conditions: result in words
[2] = system: macrophages, monocytes, mast cells and capillary endothelial cells; conditions: result in words

copper complex of the tripeptide glycyl-L-histidyl-L-lysine [GHK-Cu^2+]
fibroblasts synthesis of collagen (fibroblasts; at 10^-9M, result in words): almost doubles | increase in collagen synthesis (fibroblasts; cultures of fibroblasts, at 10^-9M): about 80% | peptide concentration at which stimulation of collagen synthesis is observed (as low as) (fibroblasts; cultures of fibroblasts, lowest concentration with stimulation): 10^-12 M | peptide concentration of maximum stimulation of collagen synthesis (fibroblasts; cultures of fibroblasts, maximal activity): 10^-9 M | superoxide dismutase-like activity, rate constant relative to enzymatic Cu,Zn-superoxide dismutase [1]: about 25% | aggregation of blood platelets (blood platelets): inhibits | effect on the hormone thromboxane (thromboxane): inhibits | chemoattractive effect on cells necessary for wound-healing [2]: chemoattractive effect
